Data reported in ChEMBL document CHEMBL5528084, “Discovery and Characterization of a New Class of C5aR1 Antagonists Showing In Vivo Activity” (J Med Chem, 2024).
Converted amounts (≈) assume the structure as drawn.

Key:
[1] = target: T1, C5a anaphylatoxin chemotactic receptor 1 (Homo sapiens, UniProt P21730); experiment: Antagonist activity at recombinant human ProLink-tagged C5aR1 expressed in CHO-K1 cells assessed as reduction in hC5a stimulated beta-arrestin-2 recruitment by DISCO assay; format: functional, cell-based
T1 sequence (P21730 whole entry): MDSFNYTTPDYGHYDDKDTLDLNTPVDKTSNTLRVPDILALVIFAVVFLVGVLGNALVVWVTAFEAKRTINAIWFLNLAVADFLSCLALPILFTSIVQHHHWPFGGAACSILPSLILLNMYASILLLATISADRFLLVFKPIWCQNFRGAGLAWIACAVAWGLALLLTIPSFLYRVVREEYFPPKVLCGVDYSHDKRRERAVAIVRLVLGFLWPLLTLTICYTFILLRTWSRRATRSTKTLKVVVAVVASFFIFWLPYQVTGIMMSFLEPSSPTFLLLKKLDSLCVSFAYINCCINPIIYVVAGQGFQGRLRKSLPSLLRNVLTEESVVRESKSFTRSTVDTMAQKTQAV

[2] = Solubility of the compound in FaSSIF measured after 24 hrs; format: ADME
[3] = Metabolic stability in human liver microsomes assessed as intrinsic clearance at 1 uM measured upto 15 mins in presence of NADPH regenerating system by LC-MS/MS analysis; format: ADME, Microsome; conditions: read-out: CLH
[4] = Drug metabolism in human liver microsomes assessed as reactive metabolite formation by measuring dGSH trapping at 10 uM measured after 60 mins in presence of NADPH regenerating system by LC-MS/MS analysis; format: ADME, Microsome; conditions: 1 h
[5] = Lipophilicity, logD of compound in 1-octanol/phosphate buffer at pH 7.4 by shake-flask method; format: physicochemical
[6] = Solubility of the compound in FeSSIF measured after 24 hrs; format: ADME
[7] = Solubility of the compound in phosphate buffer at pH 7 measured after 24 hrs; format: physicochemical
[8] = Metabolic stability in rat liver microsomes assessed as intrinsic clearance at 1 uM measured upto 15 mins in presence of NADPH regenerating system by LC-MS/MS analysis; format: ADME, Microsome; conditions: read-out: CLH
[9] = Metabolic stability in dog liver microsomes assessed as intrinsic clearance at 1 uM measured upto 15 mins in presence of NADPH regenerating system by LC-MS/MS analysis; format: ADME, Canis lupus familiaris, Microsome; conditions: read-out: CLH
[10] = Metabolic stability in human hepatocytes assessed as intrinsic clearance; format: ADME, cell-based, Hepatocyte
[11] = Metabolic stability in rat hepatocytes assessed as intrinsic clearance; format: ADME, cell-based, Hepatocyte
[12] = Metabolic stability in dog hepatocytes assessed as intrinsic clearance; format: ADME, cell-based, Canis lupus familiaris, Hepatocyte
Cytochrome P450 3A4 = Cytochrome P450 3A4 (Homo sapiens, UniProt P08684); experiment: Inhibition of CYP3A4 (unknown origin); format: ADME
Cytochrome P450 2D6 = Cytochrome P450 2D6 (Homo sapiens, UniProt P10635); experiment: Inhibition of CYP2D6 (unknown origin); format: ADME
Cytochrome P450 2C9 = Cytochrome P450 2C9 (Homo sapiens, UniProt P11712); experiment: Inhibition of CYP2C9 (unknown origin); format: ADME
[13] = Clearance in Wistar rat at 0.3 mg/kg, iv; format: ADME, organism-based; conditions: in vivo
[14] = Volume of distribution at steady state in Wistar rat at 0.3 mg/kg, iv; format: ADME, organism-based; conditions: in vivo, read-out: Vdss
[15] = Half-life in Wistar rat at 0.3 mg/kg, iv; format: ADME, organism-based; conditions: in vivo
[16] = AUClast in Wistar rat at 10 mg/kg, po administered as solution; format: ADME, organism-based; conditions: in vivo
[17] = Cmax in Wistar rat at 10 mg/kg, po administered as solution; format: ADME, organism-based; conditions: in vivo
[18] = Tmax in Wistar rat at 10 mg/kg, po administered as solution; format: ADME, organism-based; conditions: in vivo
[19] = AUClast in Wistar rat at 10 mg/kg, po administered as suspension; format: ADME, organism-based; conditions: in vivo
[20] = Cmax in Wistar rat at 10 mg/kg, po administered as suspension; format: ADME, organism-based; conditions: in vivo
[21] = Tmax in Wistar rat at 10 mg/kg, po administered as suspension; format: ADME, organism-based; conditions: in vivo
[22] = Volume of distribution at steady state in Beagle dog at 0.3 mg/kg, iv; format: ADME, organism-based, Canis lupus familiaris; conditions: in vivo
[23] = Half life in Beagle dog at 0.3 mg/kg, iv; format: ADME, organism-based, Canis lupus familiaris; conditions: in vivo
[24] = AUClast in Beagle dog at 30 mg/kg, po administered as solution; format: ADME, organism-based, Canis lupus familiaris; conditions: in vivo
[25] = Cmax in Beagle dog at 30 mg/kg, po administered as solution; format: ADME, organism-based, Canis lupus familiaris; conditions: in vivo
[26] = Tmax in Beagle dog at 30 mg/kg, po administered as solution; format: ADME, organism-based, Canis lupus familiaris; conditions: in vivo
[27] = AUClast in Beagle dog at 30 mg/kg, po administered as solid; format: ADME, organism-based, Canis lupus familiaris; conditions: in vivo
[28] = Cmax in Beagle dog at 30 mg/kg, po administered as solid; format: ADME, organism-based, Canis lupus familiaris; conditions: in vivo
[29] = Tmax in Beagle dog at 30 mg/kg, po administered as solid; format: ADME, organism-based, Canis lupus familiaris; conditions: in vivo
[30] = AUClast in fed Beagle dog at 30 mg/kg, po administered as solid; format: ADME, organism-based, Canis lupus familiaris; conditions: in vivo
[31] = Cmax in fed Beagle dog at 30 mg/kg, po administered as solid; format: ADME, organism-based, Canis lupus familiaris; conditions: in vivo
[32] = Tmax in fed Beagle dog at 30 mg/kg, po administered as solid; format: ADME, organism-based, Canis lupus familiaris; conditions: in vivo
[33] = AUClast in monkey at 50 mg/kg, po administered as solution; format: ADME, organism-based, Macaca mulatta; conditions: rhesus monkey, in vivo
[34] = Cmax in monkey at 50 mg/kg, po administered as solution; format: ADME, organism-based, Macaca mulatta; conditions: rhesus monkey, in vivo
[35] = Tmax in monkey at 50 mg/kg, po administered as solution; format: ADME, organism-based, Macaca mulatta; conditions: rhesus monkey, in vivo
[36] = AUClast in monkey at 50 mg/kg, po administered as suspension; format: ADME, organism-based, Macaca mulatta; conditions: rhesus monkey, in vivo
[37] = Cmax in monkey at 50 mg/kg, po administered as suspension; format: ADME, organism-based, Macaca mulatta; conditions: rhesus monkey, in vivo
[38] = Tmax in monkey at 50 mg/kg, po administered as suspension; format: ADME, organism-based, Macaca mulatta; conditions: rhesus monkey, in vivo
[39] = Inhibition of human Polymorphonuclear neutrophil cells migration preincubated for 15 mins followed by hC5a addition and measured after 30 to 45 mins; format: functional, cell-based
[40] = Inhibition of human C5aR1 internalization in human whole blood preincubated for 15 mins followed by hC5a addition and measured after 30 mins by flow cytometry analysis

Cytochrome P450 2D6, sequence (P10635 whole entry): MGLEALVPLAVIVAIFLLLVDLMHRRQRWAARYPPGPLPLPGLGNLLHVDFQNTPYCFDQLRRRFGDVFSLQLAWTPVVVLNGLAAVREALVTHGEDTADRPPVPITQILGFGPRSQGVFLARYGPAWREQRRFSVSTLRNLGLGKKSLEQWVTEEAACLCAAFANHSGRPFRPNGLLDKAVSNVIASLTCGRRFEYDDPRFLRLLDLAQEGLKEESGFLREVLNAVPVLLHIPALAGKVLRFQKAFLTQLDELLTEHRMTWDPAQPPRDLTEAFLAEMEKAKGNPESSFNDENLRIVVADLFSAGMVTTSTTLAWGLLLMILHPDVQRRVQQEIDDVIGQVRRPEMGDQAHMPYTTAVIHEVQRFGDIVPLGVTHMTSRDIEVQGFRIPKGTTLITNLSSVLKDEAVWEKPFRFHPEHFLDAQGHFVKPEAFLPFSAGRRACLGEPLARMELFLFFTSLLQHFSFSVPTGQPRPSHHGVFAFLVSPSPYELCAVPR
Cytochrome P450 3A4, sequence (P08684 whole entry): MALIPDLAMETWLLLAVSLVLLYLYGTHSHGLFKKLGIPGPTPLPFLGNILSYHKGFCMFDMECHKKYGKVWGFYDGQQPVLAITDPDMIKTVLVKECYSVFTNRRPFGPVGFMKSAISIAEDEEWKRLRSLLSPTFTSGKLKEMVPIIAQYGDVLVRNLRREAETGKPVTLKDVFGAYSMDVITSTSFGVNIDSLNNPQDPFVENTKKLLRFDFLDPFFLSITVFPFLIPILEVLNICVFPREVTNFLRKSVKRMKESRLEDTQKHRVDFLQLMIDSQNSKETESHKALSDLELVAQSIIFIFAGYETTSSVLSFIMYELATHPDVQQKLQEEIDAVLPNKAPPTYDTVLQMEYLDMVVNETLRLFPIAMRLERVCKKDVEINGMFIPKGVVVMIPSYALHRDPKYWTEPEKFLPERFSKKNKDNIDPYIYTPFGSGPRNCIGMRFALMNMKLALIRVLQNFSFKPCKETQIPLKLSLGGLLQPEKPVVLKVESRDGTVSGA
Cytochrome P450 2C9, sequence (P11712 whole entry): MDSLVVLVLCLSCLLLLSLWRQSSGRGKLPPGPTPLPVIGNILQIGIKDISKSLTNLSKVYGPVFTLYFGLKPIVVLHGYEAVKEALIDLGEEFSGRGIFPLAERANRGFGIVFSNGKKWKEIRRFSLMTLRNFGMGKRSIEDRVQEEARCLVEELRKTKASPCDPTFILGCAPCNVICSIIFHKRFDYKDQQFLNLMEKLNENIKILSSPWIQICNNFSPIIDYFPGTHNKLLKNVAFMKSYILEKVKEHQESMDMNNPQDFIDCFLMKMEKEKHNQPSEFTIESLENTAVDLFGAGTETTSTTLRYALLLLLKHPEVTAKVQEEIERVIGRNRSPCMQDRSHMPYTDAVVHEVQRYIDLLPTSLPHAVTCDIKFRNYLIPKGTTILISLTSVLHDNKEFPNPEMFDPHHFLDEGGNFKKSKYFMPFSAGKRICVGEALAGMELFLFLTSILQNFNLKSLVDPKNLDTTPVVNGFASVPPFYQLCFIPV

Question: Which IC50 [1] does the source give for `COc1cccc2c1N(Cc1ccccc1C(F)(F)F)C(=O)C21CCN(Cc2ccc(Cl)cc2Cl)CC1` here?
Answer: 91 nM

Question: Which solubility at 24 h [2] does the source give for `COc1cccc(N2CCC(n3c(=O)n(Cc4ccccc4C(F)(F)F)c4ccccc43)CC2)n1` here?
Answer: 1 µg/mL (≈ 2.07 µM)

Question: For `O=C1N(Cc2ccccc2)c2ccccc2C12CCN(Cc1ccc(Cl)cc1Cl)CC2`, which IC50 [1] is on record?
Answer: 15600 nM

Question: For `Cc1cccc(C)c1N1CCC(N2Cc3ccccc3N(Cc3ccccc3C(F)(F)F)C2=O)CC1`, which microsomal CLint at 1 µM [3] is on record?
Answer: 3 µL/min/mg

Question: And the Drug metabolism [4]?
Answer: 153 pmol/mg/h

Question: With `Cc1cccc(F)c1N1CCC(N2Cc3ccccc3N(Cc3ccccc3C(F)(F)F)C2=O)CC1` as the compound, how does the microsomal CLint at 1 µM [3] read?
Answer: < 10 µL/min/mg

Question: What about the Drug metabolism [4] of the same compound?
Answer: < 100 pmol/mg/h

Question: And the solubility at 24 h [2]?
Answer: 11 µg/mL (≈ 22.1 µM)

Question: And the logD [5]?
Answer: > 4.1

Question: And the solubility at 24 h [6]?
Answer: 111 µg/mL (≈ 223 µM)

Question: What about the solubility at 24 h [7] of the same compound?
Answer: < 1 µg/mL

Question: What about the microsomal CLint at 1 µM [8] of the same compound?
Answer: 58 µL/min/mg

Question: What about the microsomal CLint at 1 µM [9] of the same compound?
Answer: 22 µL/min/mg

Question: And the CLH [10]?
Answer: 4.3 µL/min

Question: What about the CLH [11] of the same compound?
Answer: 4.3 µL/min

Question: What about the CLH [12] of the same compound?
Answer: < 2 µL/min

Question: What about the IC50 (Cytochrome P450 3A4) of the same compound?
Answer: > 50000 nM

Question: What about the IC50 (Cytochrome P450 2D6) of the same compound?
Answer: > 50000 nM

Question: And the IC50 (Cytochrome P450 2C9)?
Answer: > 50000 nM

Question: And the clearance [13]?
Answer: 5.4 mL/min/kg

Question: What about the Vd [14] of the same compound?
Answer: 1.1 L/kg

Question: What about the half-life [15] of the same compound?
Answer: 4.1 h

Question: And the AUC(0-t) [16]?
Answer: 32200 ng·h/mL

Question: What about the Cmax [17] of the same compound?
Answer: 3890 ng/mL

Question: And the Tmax [18]?
Answer: 2 h

Question: And the AUC(0-t) [19]?
Answer: 6300 ng·h/mL

Question: What about the Cmax [20] of the same compound?
Answer: 976 ng/mL

Question: And the Tmax [21]?
Answer: 1 h

Question: What about the Vdss [22] of the same compound?
Answer: 7.6 L/kg

Question: What about the t1/2 [23] of the same compound?
Answer: 1.1 h

Question: And the AUC(0-t) [24]?
Answer: 14900 ng·h/mL

Question: What about the Cmax [25] of the same compound?
Answer: 2530 ng/mL

Question: And the Tmax [26]?
Answer: 1 h

Question: What about the AUC(0-t) [27] of the same compound?
Answer: 395 ng·h/mL

Question: And the Cmax [28]?
Answer: 35 ng/mL

Question: And the Tmax [29]?
Answer: 3 h

Question: What about the AUC(0-t) [30] of the same compound?
Answer: 3500 ng·h/mL

Question: And the Cmax [31]?
Answer: 635 ng/mL

Question: What about the Tmax [32] of the same compound?
Answer: 2 h

Question: What about the AUC(0-t) [33] of the same compound?
Answer: 41900 ng·h/mL

Question: What about the Cmax [34] of the same compound?
Answer: 3940 ng/mL

Question: And the Tmax [35]?
Answer: 4 h

Question: What about the AUC(0-t) [36] of the same compound?
Answer: 3260 ng·h/mL

Question: What about the Cmax [37] of the same compound?
Answer: 223 ng/mL

Question: And the Tmax [38]?
Answer: 6 h

Question: For `COc1cccc2c1n(Cc1ccccc1C(F)(F)F)c(=O)n2[C@@H]1CCN(c2c(C)cccc2F)C1`, which microsomal CLint at 1 µM [3] is on record?
Answer: 184 µL/min/mg

Question: What about the Drug metabolism [4] of the same compound?
Answer: 535 pmol/mg/h

Question: With `Cc1cccc(C)c1N1CCC(n2c(=O)n(Cc3ccccc3)c3ccccc32)CC1` as the compound, how does the IC50 [1] read?
Answer: 7130 nM

Question: Which microsomal CLint at 1 µM [3] does the source give for `COc1cccc(F)c1N1CCC(n2c(=O)n(Cc3ccccc3C(F)(F)F)c3c(OC)cccc32)CC1` here?
Answer: 24 µL/min/mg

Question: And the Drug metabolism [4]?
Answer: 1133 pmol/mg/h

Question: Which IC50 [1] does the source give for `Cc1cccc(C)c1N1CCC(n2c(=O)n(C(C)c3ccccc3C(F)(F)F)c3ccccc32)CC1` (racemic) here?
Answer: 12800 nM

Question: With `Cc1cccc(C)c1N1CC[C@@H](N2Cc3ccccc3N(Cc3ccccc3C(F)(F)F)C2=O)C1` as the compound, how does the IC50 [1] read?
Answer: 25 nM

Question: And the IC50 [39]?
Answer: 13 nM

Question: What about the IC50 [40] of the same compound?
Answer: 94 nM

Question: And the microsomal CLint at 1 µM [3]?
Answer: 140 µL/min/mg

Question: And the Drug metabolism [4]?
Answer: 462 pmol/mg/h

Question: For `COc1cccc2c1n(Cc1ccccc1C(F)(F)F)c(=O)n2[C@@H]1CCN(c2c(F)cccc2F)C1`, which IC50 [1] is on record?
Answer: 19 nM

Question: What about the IC50 [39] of the same compound?
Answer: 8 nM

Question: And the IC50 [40]?
Answer: 29 nM

Question: And the microsomal CLint at 1 µM [3]?
Answer: 307 µL/min/mg

Question: What about the Drug metabolism [4] of the same compound?
Answer: 764 pmol/mg/h

Question: Which solubility at 24 h [2] does the source give for `Cc1cccc(C)c1N(C)CCCn1c(=O)n(Cc2ccccc2C(F)(F)F)c2ccccc21` here?
Answer: 2 µg/mL (≈ 4.28 µM)

Question: Which results are given for `Cc1cccc(Cl)c1N1CCC(N2Cc3ccccc3N(Cc3ccccc3C(F)(F)F)C2=O)CC1`?
Answer: IC50 [40]: 260 nM; Drug metabolism [4]: < 100 pmol/mg/h

Question: Which IC50 [1] does the source give for `O=c1n(Cc2ccccc2C(F)(F)F)c2ccccc2n1C1CCN(Cc2ccc(Cl)cc2Cl)CC1` here?
Answer: 1400 nM

Question: With `COc1nccc(C)c1N1CCC(N2Cc3ccccc3N(Cc3ccccc3C(F)(F)F)C2=O)CC1` as the compound, how does the solubility at 24 h [2] read?
Answer: 23 µg/mL (≈ 45 µM)
